Measured values: patent US7413903B2, “Methods of regulating differentiation in stem cells” (ES Cell International PTE Ltd., priority 2002, dated 2008)

Key:
[1] = test system: hES cells; assay: GCTM-2 quantification (alkaline phosphatase-coupled secondary antibody, OD 405 nm); type: cell-based, human; settings: for effect of inhibitor on the effect of PDGF and S1P on GCTM2 expression: 7 days, U0126, DMS 3 μM; for more GCMT2+ than the control cells / GCTM2 levels, PDGF isoform added with S1P: Example 1; for more GCMT2+ than the control cells: on MEF, 8 days, S1P 10 μM; for more GCMT2+ than the control cells / more GCMT2+ than the controls: serum-free; for more GCMT2+ than the controls: treated for 2 weeks
Description: hES-3 cells plated with MEF, were fixed in ethanol and immunostained with GCTM-2 and then with an alkaline phosphatase-coupled secondary antibody (Dako). The activity of alkaline phosphatase was detected by adding a solution of 4-nitrophenyl phosphate (Roche, Mannheim, Germany), followed by reading the optical density (OD) at 405 nm. In order to validate the technique as a relevant indicator of the proportion of GCTM-2 positive cells, standard curves were done with the teratocarcinoma cell line GCT27C4, known to express GCTM-2.
Cells were fixed in 100% ethanol and immunostained with GCTM-2 followed by alkaline phosphatase-coupled secondary antibodies (Dako). Alkaline phosphatase activity was detected by adding a solution of 4-nitrophenyl phosphate (Roche), and the concentration of the reaction product was determined by reading the optical density (OD) at 405 nm. In order to validate the technique as an accurate indicator of the proportion of GCTM-2 positive cells, standard curves were carried out with the embryonal carcinoma cell line GCT27C4, known to express GCTM-2 ^20.

[2] = test system: hES cells; assay: GCTM-2 / PCNA double immunostaining and cell counting of mechanically dissociated hES cells; type: cell-based, human; settings: for percentage of cells GCTM2+: mechanically dissociated, PDGF 10 ng/ml
Description: In some experiments, hES-3 cells plated onto 8-well chamber slides, with or without MEF, were fixed in ethanol or paraformaldehyde (for PDGFR) the day after plating. In others, hES-3 cells were mechanically dissociated, in order to obtain a monolayer culture and then plated onto 8-well chamber slides without MEF and were fixed in ethanol 4 days after the first treatment. Immunostaining was performed using the following antibodies: anti human PDGFR-α or PDGFR-β(R&D Systems Inc.), GCTM-2, and/or PCNA (Chemicon, Boronia, VIC, Australia), TRA-1-60, Oct-4. Nuclei were evidenced by Hoechst-33342. Slides were mounted and observed by fluorescent microscopy with a Leica microscope at X10, X20 and X40. Specificity was verified by the absence of any staining in the negative controls. In some experiments, cells were counted to determine the ratio of cells within the global population.
For immunostaining, hES-3 cells were coated on chamber slides after mechanical dissociation, in order to obtain a monolayer culture. The day following the plating, cells were incubated with the different agents in a media depleted in serum. Media was changed the 2nd day and the cells were fixed 4 days after the first treatment.
Cells were washed in PBS, fixed with MeOH, and immunostaining was performed, using the specific stem cell marker antibody GCTM-2, and the specific cell proliferation marker PCNA. Cells were then washed and the nucleuses were stained with Hoechst-33342 (1 μg/ml). Slides were mounted and then observed by fluorescent microscopy. Cells were then counted in order to determine the ratio of proliferating stem cells within the overall population.

[3] = test system: hES cells; assay: Direct observation of hES cell colonies in serum-free medium (spontaneous differentiation); type: cell-based, human; settings: for colony morphology / spontaneous differentiation vs control: Example 1, PDGF 20 ng/ml; for colony morphology / spontaneous differentiation vs control / colony size, morphology / spontaneous differentiation vs controls: on MEF, serum-free; for colony morphology / spontaneous differentiation vs control / colony size, morphology / spontaneous differentiation vs controls / colony growth / differentiation vs control: LPA up to 50 μM; for colony size, morphology / spontaneous differentiation vs controls: Example 2, 2 weeks, PDGF-AB 20 ng/ml; for colony growth / differentiation vs control: 12 days
Description: (§1) hES-3 cells were cultured as previously described^1. The serum-free culture medium consisted of DMEM (without sodium pyruvate, glucose 4500 mg/l, Invitrogen, Mount Waverley, VIC, Australia) supplemented with insulin/transferrin/selenium 1%, β-mercaptoethanol 0.1 mM, NEAA 1%, glutamine 2 mM, Hepes 25 mM, penicillin 50 U/ml and streptomycin […] (all from Invitrogen). Medium was changed every 2 days and cells were passaged every week. S1P and dihydro-S1P were obtained from Biomol (Plymouth Meeting, Pa., USA) and were dissolved in methanol. LPA was obtained from Sigma (Castle Hill, NSW, Australia) and was dissolved in ethanol. Extemporaneous dilutions of all lipids were made in water containing 0.1% fatty acid-free bovine serum albumin (BSA) (Sigma). Human PDGF-AB, PDGF-AA, PDGF-BB were from PreproTech Inc. (Rocky Hill, N.J., USA). RT-PCR Experiments.
as §1, with “Media” for “Medium”, “USA).” for “USA) and were dissolved in methanol.”, “Australia).” for “Australia) and was dissolved in ethanol.”, “(Sigma). S1P and dihydro-S1P were used at […].” for “(Sigma).”, “USA) and were used at 20 ng/ml.” for “USA). RT-PCR Experiments.”
For direct observation, hES-3 cells were coated into 12-well plates (3 colonies per well), with or without mouse embryonic feeders (MEFs). The day following the plating, cells were incubated with the different agents in serum free medium containing insulin, transferring and selenium. Media was changed the 2nd day and then every 2 days.

[4] = test system: ERK1/2 (Erk1 and Erk2); assay: ERKs phosphorylation in hES cells (Western blot, anti-active MAP kinase); type: cell-based, human; settings: for phosphorylation of ERKs in hES cells: 5 min incubation, LPA, PDGF 20 ng/ml, serum-depleted, without MEF
Description: hES-3 cells plated without MEF for 24 hrs were depleted of serum for a further 18 hrs. Cells pre-treated or not with U0126 (Sigma, 30 μM, 1 hr), were incubated in the presence of the different agents for 5 min and were lysed by removal of the supernatants and addition of a reducing loading buffer containing 1 mM sodium orthovanadate (Sigma). Protein lysates (approx. 80 μg) were separated by SDS-polyacrylamide gel electrophoresis (10% polyacrylamide, w/v), transferred to nitrocellulose (Hybond-nitrocellulose, Amersham) and immunoblotting was carried out using rabbit polyclonal anti-active mitogen-activated protein (MAPK) antibodies raised against a dually phosphorylated MAPK peptide (Promega, Madison, Wis., USA). Peroxidase-coupled secondary antibody (Dako) was detected by exposure of autoradiographic films in the presence of a chemiluminescent detection reagent (ECL, Amersham). Stripping of antibodies was achieved and membranes were then reprobed with rabbit polyclonal anti-ERK1/2 antibodies (Promega), and then with peroxidase-coupled secondary antibodies (Dako). Membranes probed with either rabbit polyclonal anti-active p38 (Promega) or rabbit polyclonal anti-active JNK (Promega) antibodies were also performed, using the same procedure as described
For immunoblot analysis, cells were transferred into 24 well plates (8 colonies per well) without MEFs, and 24 hr later, were grown in the absence of serum for 18 hrs.
In some experiments, cells were pre-treated for 1 hr with U0126 (30 μM) or for 18 hrs with PTX (100 μg/ml).
hES3 cells were lysed following removal of the supernatants by addition of a reducing loading buffer (2% SDS, 62.5 mM Tris pH 6.8, 0.1 M DTT, 0.01% bromophenol blue) containing 1 mM sodium orthovanadate. Samples were boiled for 10 min and centrifuged at 13000 g for 15 min, and protein lysates (approx. 80 μg) were separated by SDS-polyacrylamide gel electrophoresis (10% polyacrylamide, w/v). Proteins were transferred to nitrocellulose (Hybond-ECL, Amersham) and immunoblotting was carried out with rabbit polyclonal anti-active mitogen-activated protein (MAPK) antibodies raised against a dually phosphorylated MAPK peptide (Promega, Madison, Wis., USA). Peroxidase-coupled secondary antibody (Dako) was detected by exposure of autoradiographic films in the presence of a chemiluminescent detection reagent (ECL, Amersham). Stripping of antibodies was achieved by incubating the membrane during 30 min at 50° C. in a buffer containing 100 mM mercaptoethanol, 2% SDS, 62.5 mM Tris-HCl pH 6.7. The membrane was then reprobing with rabbit polyclonal anti-ERK1/2 antibodies (Promega), and then with peroxidase-coupled secondary antibodies (Dako).

[5] = test system: SPK in MEF; assay: Sphingosine kinase activity in MEF after incubation with PDGF; type: cell-based, mouse; settings: PDGF 20 ng/ml
[6] = test system: SPK activity in hES cells; assay: Sphingosine kinase activity in hES cells after incubation with PDGF; type: cell-based, human; settings: PDGF 20 ng/ml
Description: hES-3 cells plated without MEF for 24 hr and depleted of serum for a further 18 hr were incubated in the presence of PDGF (20 ng/ml) for various time periods and were harvested and lysed by sonication (2 W for 30 s at 4° C.) in lysis buffer containing 50 mM Tris/HCl (pH 7.4), 10% glycerol, 0.05% Triton X-100, 150 mM NaCl, 1 mM dithiothreitol, 2 mM Na3VO4, 10 mM NaF, 1 mM EDTA and protease inhibitors (Complete™, Roche, Mannheim, Germany). SPK activity was determined using D-erythro-sphingosine and […] as substrates, as previously described^19. Protein concentrations in cell homogenates were determined with Coomassie Brilliant Blue reagent (Bio-Rad, Regent Park, NSW, Australia) using bovine serum albumin as standard.

[7] = Example 1, 4 days, no MEF, no serum, S1P 10 μM
[8] = Example 1, 4 days, no MEF, no serum
[9] = Example 4, on MEFs, serum-depleted, S1P 10 μM

## CCCCCCCCCCCCC/C=C/[C@@H](O)[C@H](CO)N(C)C [DMS, dimethylsphingosine]
[1]
  effect of inhibitor on the effect of PDGF and S1P on GCTM2 expression: inhibited the effect of PDGF and S1P

## CCCCCCCCCCCCC/C=C/[C@@H](O)[C@@H](N)COP(=O)(O)O [S1P, sphingosine-1-phosphate]
[2]; [7]
  percentage of cells GCTM2+: 47.9±3.8%
[2]; [8]
  proliferating rate of hES cells (PCNA) vs control: no statistically significant difference
[2]; Example 4, 4 days without serum, S1P 10 μM
  proliferating rate of hES cells (PCNA) vs control: no marked difference
[2]; Example 4, 4 days without serum, S1P 10 μM (control 16%)
  cells GCTM-2 positive: 68%
[3]; 8 days, S1P 10 μM
  colony morphology / spontaneous differentiation vs control: the colonies appeared flatter and less differentiated
[3]; S1P 10 μM
  colony size, morphology / spontaneous differentiation vs controls: the colonies appeared flatter and less differentiated
[3]; Example 4, on MEFs, serum-depleted, 8 days, S1P 10 μM
  colony morphology / differentiation vs control condition: the colonies were more compact and less differentiated
[3]; [9]
  colony growth / differentiation vs control: more obvious after 12 days of treatment
[3]; Example 4
  effect on cell differentiation, hES cells grown without MEFs: inhibitory effect
[4]; 5 min, various concentrations of S1P
  concentration dependence of ERKs stimulation: in a concentration dependant manner
[4]; S1P 10 μM
  phosphorylation of ERKs in hES cells: stimulated the phosphorylation of ERKs
  duration of ERKs stimulation: at least 60 min
[1]; PDGF 20 ng/ml
  more GCMT2+ than the control cells: 16.6±4.1%
[1]; Example 2
  more GCMT2+ than the controls: 18.0±17.0%

## N#CC(=C(/N)Sc1ccccc1N)/C(C#N)=C(\N)Sc1ccccc1N [U0126]
[4]; U0126 30 μM, 1 hr pre-treatment
  effect of MEK inhibitor on agonist-stimulated phosphorylation of ERKs: totally inhibited
[1]
  effect of inhibitor on the effect of PDGF and S1P on GCTM2 expression: totally inhibited

## CCCCCCCCCCCCCCC[C@@H](O)[C@@H](N)COP(=O)(O)O [dihydro-S1P, dihydrosphingosine-1-phosphate]
[1]; Example 2, 2 weeks, dihydro-S1P, PDGF 20 ng/ml
  GCTM2 expression: 223.0±27.0 % of control

## PDGF-AA: Human platelet-derived growth factor isoform AA; only binds to PDGFR-a
[1]
  GCTM2 levels, PDGF isoform added with S1P: 120.5±4.5 % of control
[1]; Example 2, 2 weeks, isoform 20 ng/ml together with S1P
  GCTM2 expression, PDGF isoform with S1P: 220.3±49.0 % of control

## PDGF: Human platelet-derived growth factor, isoform AB, from PreproTech; ligand of class III tyrosine kinase receptor
[2]; [7]
  percentage of cells GCTM2+: 53.7±13.2%
[2]; [8]
  proliferating rate of hES cells (PCNA) vs control: no statistically significant difference
[5]
  activation of SPK in MEF: did not induce a significant statistical activation of SPK
[6]
  duration of enhanced SPK activity: at least 60 min
[6]; after 30 min of incubation
  SPK activity relative to basal values: 1.6 fold
[3]; 8 days, S1P 10 μM
  colony morphology / spontaneous differentiation vs control: the colonies appeared flatter and less differentiated
[3]; S1P 10 μM
  colony size, morphology / spontaneous differentiation vs controls: the colonies appeared flatter and less differentiated
[4]; S1P 10 μM
  phosphorylation of ERKs in hES cells: stimulated the phosphorylation of ERKs
[1]
  GCTM2 levels, PDGF isoform added with S1P: 125.7±9.7 % of control
[1]; PDGF 20 ng/ml
  more GCMT2+ than the control cells: 16.6±7.0%
[1]; Example 2
  more GCMT2+ than the controls: 50.3±18.4%

## lysophosphatidic acid [LPA]
[3]; 8 days, S1P 10 μM
  colony morphology / spontaneous differentiation vs control: did not have an obvious effect on growth of the colonies
[3]; S1P 10 μM
  colony size, morphology / spontaneous differentiation vs controls: no obvious effect on size or morphology of hES cell colonies
[3]; [9]
  colony growth / differentiation vs control: did not seem to affect the growth of the colonies
[3]; Example 4
  effect on cell differentiation, hES cells grown without MEFs: lack of effect
[4]; S1P 10 μM
  phosphorylation of ERKs in hES cells: stimulated the phosphorylation of ERKs
